Series [1] can be described thus: Cyclization kinetics of model thioethers and sulfoxides by RP-HPLC. It is filed as physicochemical. Conditions: for half-life at 200 μM: PBS, pH 7.4, 200 μM in PBS/DMSO (98:2); for half-life at 200 μM / cyclization, result in words: 37 °C, pH 7.4; for cyclization, result in words: 200 μM in PBS/DMSO (98:2). Here is the method:
The basic premise of this ROS-sensitive prodrug strategy relies on two properties: (1) the substantial rate enhancement of the cyclization/condensation reaction after oxidation and (2) the ability for ROS to oxidize a thioether to sulfoxide rapidly, which we have recently extensively studied. To examine the first aspect, we studied the rate of cyclization of the thioethers (3a–3g) and sulfoxides (4a–4g) using RP-HPLC (Figure and Figures S1–S5). Briefly, 200 μM thioether or sulfoxide was incubated in PBS (containing 2% DMSO) at 37 °C. Aliquots of the reaction solution were sampled at designated time points for examination of the reaction kinetic profiles. As representative examples, the cases of thioether-sulfoxide pairs 3 a /4a (EWG: −CN), 3 e /4e (EWG: −CONH2), and 3 f /4f (EWG: −CONHC3H7) are described (Figure ). […] As a subsequent step, we were interested in the ability to tune the reaction kinetics and the magnitude of the reaction rate separation between the thioether and sulfoxide analogs. We are especially interested in searching for systems that offer a high degree of separation in reaction kinetics before and after thioether oxidation.
First, 10 mM stock solutions of compound 3 or 4 were prepared in DMSO. […] The resultant solution was kept at 37 °C. […] Either gradient method A or B was used to monitor the reaction.

Series [2] can be described thus: Drug release / stability of drug conjugates in buffer in the absence of ROS (RP-HPLC). The format is physicochemical. Conditions: 100 μM, 37 °C. The procedure: Cellular compartments can have slightly different pH.
To monitor drug release in the absence of ROS, the same procedure of the model compound was followed with a small change of stock solution solvent. For drug conjugates 12, DMF was used to prepare the stock solution. Briefly, a 10 mM stock solution of the drug-conjugated compound was prepared in DMF. […] The resultant solution was kept at 37 °C.

Another series has as its system RAW264.7 cells. Briefly: Intracellular ROS detection using DCFH-DA fluorescent probe. The format is cell-based. To be noted: 10 μM DCFH-DA, PMA 2 μM or LPS 2 μg/mL, 4 h, λex 495 nm, λem 530 nm.
On the set-up of series [3]: method as in number not shown in text. To be noted: ref number not shown in text; cited from earlier work.
A further series concerns RS4;11 cells. Briefly: Cytotoxicity, CCK-8 assay. The format is cell-based. Conditions: Homo sapiens, RS4-11, 72 h. The procedure:
To conduct this set of experiments, a 96-well plate (8 × 12) was used. First, RS4;11 cells were seeded in a 96-well plate 1 day before the experiment (RPMI-1640, containing 10% FBS and 1% PNS). Then, the cells were incubated with different concentrations of compounds with or without the stimulant. Specifically, the final concentrations of compounds were 0.1 pM–100 μM with or without H2O2 (25 μM) stimulation. The plate containing cells were incubated for 72 h at 37 °C with 5% CO2. The cell viability was tested using the CCK-8 assay. Specifically, after 72 h of incubation, 10 μL of the CCK-8 assay reagent was added to each well. Then, the plate was further incubated for 2 h. After that, the plate was gently shaken for 1 min, and then absorbance was recorded at 450 nm. The percentage cell viability was calculated using the following formula: cell viability (%) = ((A 450 of treated wells – A 450 of control wells)/(A 450 of no treatment wells – A 450 of control wells)) × 100. The experiment was conducted in triplicates.

Series [4] can be described thus: ROS-triggered drug release from drug conjugates after oxidation by NaOCl (RP-HPLC). To be noted: 100 μM conjugate, 150 μM NaOCl, 37 °C, pH 7.4, 20 min.
Method: Specifically, to study drug release after oxidation by NaOCl, 100 μM of Flox-CReKT 12a was incubated with 150 μM sodium hypochlorite (NaOCl) in PBS (containing 1% DMF) under near-physiological conditions (Figure ). The reaction progress was monitored by RP-HPLC, where 20 μL of the incubated mixture was sampled and analyzed at designated time points (Figure ). Drug release t 1/2 was calculated by plotting the peak area of Flox released against time (Figure a). […] Specifically, oxidation of Flox-CReKT conjugate 12a is designed to lead to sulfoxide analogue 13a, which undergoes cyclization to release the Flox with the formation of the cyclized byproduct (6a) (Figure ).
We used the same protocol as discussed in the previous section of ROS-sensitive drug release to study the effect of pH. […] Furthermore, we used either a citrate- or PBS-based buffer to test the effect of pH on the oxidation step.
To monitor the drug release in the presence of ROS, drug conjugate 12 was incubated with ROS under near-physiological conditions. First, a 10 mM stock solution of the drug conjugate was prepared in DMF. Then, 10 μL was taken from the stock solution and added to 975 μL of the buffer. Then, 15 μL of 10 mM ROS solution was added to the solution. The resultant solution was kept at 37 °C. At different time points, 20 μL was taken from the reaction mixture and injected into HPLC.
The mark [5] stands for this setting: read-out: t 1/2 (thioether) (3a–g), cyclization (converted).
The mark [6] stands for this setting: read-out: t 1/2 (sulfoxide) (4a–g), cyclization (converted).

Like-named read-outs stand apart in the source and are kept apart here.

From the text for RAW264.7 cells: To correlate the intracellular drug release, we also studied intracellular ROS formation upon stimulation with LPS or PMA or using RAW264.7 cells. We chose one of the widely used fluorescent probes, DCFH-DA, which is the diester version of DCFH capable of cellular penetration. − Subsequent hydrolysis of the ester groups would lead to DCFH, which is not readily cell membrane permeable and thus is trapped intracellularly. […] Similar to the intracellular payload release studies, we used RAW264.7 cells for intracellular ROS determination work. Briefly, 10 μM of DCFH-DA was incubated with and without LPS/PMA. Specifically, three groups were tested with the first being 10 μM of DCFH-DA only, the second being 10 μM of DCFH-DA and 2 μg/mL of LPS, and the third being 10 μM of DCFH-DA and 2 μM of PMA. The cells were incubated for 4 h before fluorescence measurements using a plate reader (λex 495 nm and λem 530 nm). […] Working solutions were prepared by dilution in DMEM (Fluorobright DMEM, containing 1% PNS). DCFH-DA (10 μM) was prepared by adding 4 μL of 10 mM DCFH-DA in 3.996 mL of media. DCFH-DA (10 μM) and LPS (2 μg/mL) were prepared by adding 4 μL of 10 mM DCFH-DA and 4 μL of 2 μg/μL of LPS in 3.994 mL of media. […] Subsequently, the plate was incubated 4 h before fluorescence measurements using a plate reader (λex 495 nm and λem 530 nm). […]

On to `COC(=O)c1ccccc1SCC(=O)C(C)(C)C` [3c, Methyl 2-((3,3-Dimethyl-2-oxobutyl)thio)benzoate], for which, in series [1] (setting [5]), the half-life at 200 μM is 10 h.
For the compound `CCc1c2c(nc3ccc(OC(=O)c4ccccc4SCC(N)=O)cc13)-c1cc3c(c(=O)n1C2)COC(=O)[C@]3(O)CC` [14e, (S)-4,11-Diethyl-4-hydroxy-3,14-dioxo-3,4,12,14-tetrahydro-1H-pyrano[3′,4’:6,7]indolizino[1,2-b]quinolin-9-yl 2-((2-Amino-2-oxoethyl)thio)benzoate], the “SN-38 released within 24 h without oxidation” value in series [2] (pH 7.4, 24 h) is recorded as “about 25%”.
Regarding `COC(=O)c1ccccc1[S+]([O-])CC(=O)O` (stereo not drawn) [4g, 2-((2-(Methoxycarbonyl)phenyl)sulfinyl)acetic Acid], the “cyclization, result in words” value in series [1] is listed as “cyclization did not happen”. The half-life at 200 μM in series [1] (setting [6]) is above 48 h.
As to `COC(=O)c1ccccc1SCC(F)(F)F` [3b, Methyl 2-((2,2,2-Trifluoroethyl)thio)benzoate], in series [1], the “cyclization, result in words” value is given as “did not lead to cyclization”. For the same compound, the half-life at 200 μM in series [1] (setting [5]) was above 48 h.
The matching figures for `COC(=O)c1ccccc1SCC(=O)O` [3g, 2-((2-(Methoxycarbonyl)phenyl)thio)acetic Acid]: “cyclization did not happen” and above 48 h.
On to `CCCNC(=O)C[S+]([O-])c1ccccc1C(=O)OC` (stereo not drawn) [4f, Methyl 2-((2-Oxo-2-(propylamino)ethyl)sulfinyl)benzoate], for which the half-life at 200 μM in series [1] (setting [6]) is 7.5 h.
Regarding `COC(=O)c1ccccc1[S+]([O-])CC(F)(F)F` (stereo not drawn) [4b, Methyl 2-((2,2,2-Trifluoroethyl)sulfiny)benzoate], in series [1], the “cyclization, result in words” value is recorded as “did not lead to cyclization”. For the same compound, the half-life at 200 μM in series [1] (setting [6]) is above 48 h.
In the case of `CCCCCCCCCCCCCC(=O)O[C@@H]1[C@@H](C)[C@@]2(O)[C@@H](C=C(CO)C[C@]3(O)C(=O)C(C)=C[C@@H]23)[C@@H]2C(C)(C)[C@]12OC(C)=O` [PMA, phorbol 12-myristate 13-acetate], in the series with RAW264.7 cells, the “fluorescence intensity of DCFH-DA probe upon stimulation (intracellular ROS)” value is “significantly higher fluorescence intensity”.
`COC(=O)c1ccccc1[S+]([O-])CC(=O)C(C)(C)C` (stereo not drawn) [4c, Methyl 2-((3,3-Dimethyl-2-oxobutyl)sulfinyl)benzoate]: the half-life at 200 μM in series [1] (setting [6]) is 1.5 h.
For the compound lipopolysaccharides [LPS], in the series on RAW264.7 cells, the “fluorescence intensity of DCFH-DA probe upon stimulation (intracellular ROS)” value was “marginal increase”.
`COC(=O)CSc1ccccc1C(=O)OC` [3d, Methyl 2-((2-Methoxy-2-oxoethyl)thio)benzoate]: the half-life at 200 μM in series [1] (setting [5]) is 6 h.
With `CCCNC(=O)CSc1ccccc1C(=O)OC` [3f, Methyl 2-((2-Oxo-2-(propylamino)ethyl)thio)benzoate], the “cyclization, result in words” value in series [1] was “no cyclization”. In addition, the “cyclization after 5 days, result in words” value in series [1] (near-physiological conditions, 5 days) was “no significant cyclization”.
For the compound `O=C(O)c1ccccc1C1c2cc(Cl)c(O)cc2Oc2cc(O)c(Cl)cc21` [DCFH], in series [3], the “second-order rate constant of reaction with hypochlorite” value is given as 580 ± 18 M^–1 s^–1.
On to `CCCNC(=O)CSc1ccccc1C(=O)O[C@H]1C[C@H](n2cc(F)c(=O)[nH]c2=O)O[C@@H]1CO` [12f, (2R,3S,5R)-5-(5-Fluoro-2,4-dioxo-3,4-dihydropyrimidin-1(2H)-yl)-2-(hydroxymethyl)tetrahydrofuran-3-yl 2-((2-Oxo-2-(propylamino)ethyl)thio)benzoate], for which the “stability in the absence of ROS for up to 72 h” value in series [2] (pH 7.4, 72 h) is listed as “remained intact”. In addition, the IC50 in the series on RS4;11 cells (+ 25 μM H2O2) was 202 ± 3 nM; in the series with RS4;11 cells (without H2O2), 197 ± 3 nM.
Turning to `COC(=O)C[S+]([O-])c1ccccc1C(=O)OC` (stereo not drawn) [4d, Methyl 2-((2-Methoxy-2-oxoethyl)sulfinyl)benzoate], the half-life at 200 μM in series [1] (setting [6]) was 0.667 h.
Consider `COC(=O)c1ccccc1[S+]([O-])CC(N)=O` (stereo not drawn) [4e, Methyl 2-((2-Amino-2-oxoethyl)sulfinyl)benzoate], for which the half-life at 200 μM in series [1] (setting [6]) is around 2.17 h.
On to `COC(=O)c1ccccc1SCC(N)=O` [3e, Methyl 2-((2-Amino-2-oxoethyl)thio)benzoate], for which the half-life at 200 μM in series [1] (setting [5]) was above 48 h.
Turning to `COC(=O)c1ccccc1SCC#N` [3a, Methyl 2-((Cyanomethyl)thio)benzoate], the half-life at 200 μM in series [1] (setting [5]) is 5 h.
For `COC(=O)c1ccccc1[S+]([O-])CC#N` (stereo not drawn) [4a, Methyl 2-((Cyanomethyl)sulfinyl)benzoate], in series [1] (setting [6]), the half-life at 200 μM is 0.667 h.
For the compound `N#CCSc1ccccc1C(=O)OC1CC(n2cc(F)c(=O)[nH]c2=O)OC1CO` [12a, (2S,3R,5S)-5-(5-Fluoro-2,4-dioxo-3,4-dihydropyrimidin-1(2H)-yl)-2-(hydroxymethyl)tetrahydrofuran-3-yl 2-((Cyanomethyl)thio)benzoate], the “Flox released at the 20 min time point” value in series [4] is listed as 90%.
